Patent US5399543A, “3-[4-(phenylmethoxy)phenyl]-1-substituted-6-haloalkyl-uracil herbicides” (FMC Corporation, priority 1993, dated 1995)

How the values were obtained:
Soybean [1] = assay: Preemergence herbicidal activity, soybean; assay type: in vivo, Glycine max var. Williams; conditions: Glycine max, pre-emergence, 0.3 kg/ha, after 17-21 days, read-out: Preemergence herbicidal activity (% control), Soybean
Procedure: (§1) The 3-[4-(phenylmethoxy)phenyl]-1-substituted-6-haloalkyluracil herbicides of this invention were tested for pre- and postemergence herbicidal activity using a variety of crops and weeds. The test plants included soybean (Glycine max var. Williams), field corn (Zea mays var. Agway 425X), wheat (Triticum aestivum var. Wheaton), morningglory (Ipomea lacunosa or Ipomea hederacea), velvetleaf (Abutilon theophrasti), green foxtail (Setaria viridis), Johnsongrass (Sorghum halepense), blackgrass (Aloepecurus myosuroides), common chickweed (Stellaria media), and common cocklebur (Xanthium pensylvanicum).
(§2) For preemergence testing, two disposable fiber flats (8 cm×15 cm×25 cm) for each rate of application of each candidate herbicide were filled to an approximate depth of 6.5 cm with steam-sterilized sandy loam soil. The soil was leveled and impressed with a template to provide five evenly spaced furrows 13 cm long and 0.5 cm deep in each flat. Seeds of soybean, wheat, corn, green foxtail, and johnsongrass were planted in the furrows of the first flat, and seeds of velvetleaf, morningglory, common chickweed, cocklebur, and blackgrass were planted in the furrows of the second flat. The five-row template was employed to firmly press the seeds into place. A topping soil of equal portions of sand and sandy loam soil was placed uniformly on top of each flat to a depth of approximately 0.5 cm. Flats for postemergence testing were prepared in the same manner except that they were planted 8-12 days prior to the preemergence flats and were placed in a greenhouse and watered, thus allowing the seeds to germinate and the foliage to develop.
(§3) In both pre- and postemergence tests, a stock solution of the candidate herbicide was prepared by dissolving 0.27 g of the compound in 20 mL of water/acetone (50/50) containing 0.5% v/v sorbitan monolaurate. For an application rate of 3000 g/ha of herbicide a 10 mL portion of the stock solution was diluted with water/acetone (50/50) to 45 mL.
(§4) The preemergence flats were initially subjected to a light water spray. The four flats were placed two by two along a conveyor belt (i.e., the two preemergence followed by the two postemergence flats). The conveyor belt fed under a spray nozzle mounted about ten inches above the postemergent foliage. The preemergent flats were elevated on the belt so that the soil surface was at the same level below the spray nozzle as the foliage canopy of the postemergent plants. The spray of herbicidal solution was commenced and once stabilized, the flats were passed under the spray at a speed to receive a coverage equivalent of 1000 L/ha. At this coverage the application rates are those shown in the above table for the individual herbicidal solutions. The preemergence flats were watered immediately thereafter, placed in the greenhouse and watered regularly at the soil surface. The postemergence flats were immediately placed in the greenhouse and not watered until 24 hours after treatment with the test solution. Thereafter they were regularly watered at ground level. After 17-21 days the plants were examined and the phytotoxicity data were recorded.
(§5) Herbicidal activity data at selected application rates are given for various compounds of this invention in Table 2 and Table 3. The test compounds are identified by numbers which correspond to those in Table 1.
(§6) Phytotoxicity data were taken as percent control. Percent control was determined by a method similar to the 0 to 100 rating system disclosed in "Research Methods in Weed Science," 2nd ed., B. Truelove, Ed.; Southern Weed Science Society; Auburn University, Auburn, Ala., 1977.

Wheat [2] = assay: Preemergence herbicidal activity, wheat; assay type: in vivo, Triticum aestivum var. Wheaton; conditions: Triticum aestivum, pre-emergence, 0.3 kg/ha, after 17-21 days, read-out: Preemergence herbicidal activity (% control), Wheat
Procedure: as §1, §2, §3, §4, §5, §6

Corn [3] = assay: Preemergence herbicidal activity, corn; assay type: in vivo, Zea mays var. Agway 425X; conditions: Zea mays, pre-emergence, 0.3 kg/ha, after 17-21 days, read-out: Preemergence herbicidal activity (% control), Corn
Procedure: as §1, §2, §3, §4, §5, §6

Velvetleaf [4] = assay: Preemergence herbicidal activity, velvetleaf; assay type: in vivo; conditions: Abutilon theophrasti, pre-emergence, 0.3 kg/ha, after 17-21 days, read-out: Preemergence herbicidal activity (% control), Velvetleaf
Procedure: as §1, §2, §3, §4, §5, §6

Morningglory [5] = assay: Preemergence herbicidal activity, morningglory; assay type: in vivo, Ipomea lacunosa or Ipomea hederacea; conditions: Ipomoea, pre-emergence, 0.3 kg/ha, after 17-21 days, read-out: Preemergence herbicidal activity (% control), Morningglory
Procedure: as §1, §2, §3, §4, §5, §6

Chickweed [6] = assay: Preemergence herbicidal activity, chickweed; assay type: in vivo; conditions: Stellaria media, pre-emergence, 0.3 kg/ha, after 17-21 days, read-out: Preemergence herbicidal activity (% control), Chickweed
Procedure: as §1, §2, §3, §4, §5, §6

Cocklebur [7] = assay: Preemergence herbicidal activity, cocklebur; assay type: in vivo, Xanthium pensylvanicum; conditions: Xanthium strumarium, pre-emergence, 0.3 kg/ha, after 17-21 days, read-out: Preemergence herbicidal activity (% control), Cocklebur
Procedure: as §1, §2, §3, §4, §5, §6

Blackgrass [8] = assay: Preemergence herbicidal activity, blackgrass; assay type: in vivo, Aloepecurus myosuroides; conditions: Alopecurus myosuroides, pre-emergence, 0.3 kg/ha, after 17-21 days, read-out: Preemergence herbicidal activity (% control), Blackgrass
Procedure: as §1, §2, §3, §4, §5, §6

Green foxtail [9] = assay: Preemergence herbicidal activity, green foxtail; assay type: in vivo; conditions: Setaria viridis, pre-emergence, 0.3 kg/ha, after 17-21 days, read-out: Preemergence herbicidal activity (% control), Green foxtail
Procedure: as §1, §2, §3, §4, §5, §6

Johnsongrass [10] = assay: Preemergence herbicidal activity, johnsongrass; assay type: in vivo; conditions: Sorghum halepense, pre-emergence, 0.3 kg/ha, after 17-21 days, read-out: Preemergence herbicidal activity (% control), Johnsongrass
Procedure: as §1, §2, §3, §4, §5, §6

Soybean [11] = assay: Postemergence herbicidal activity, soybean; assay type: in vivo, Glycine max var. Williams; conditions: Glycine max, post-emergence, 0.3 kg/ha, after 17-21 days, read-out: Postemergence herbicidal activity (% control), Soybean
Procedure: as §1, §2, §3, §4, §5, §6

Wheat [12] = assay: Postemergence herbicidal activity, wheat; assay type: in vivo, Triticum aestivum var. Wheaton; conditions: Triticum aestivum, post-emergence, 0.3 kg/ha, after 17-21 days, read-out: Postemergence herbicidal activity (% control), Wheat
Procedure: as §1, §2, §3, §4, §5, §6

Corn [13] = assay: Postemergence herbicidal activity, corn; assay type: in vivo, Zea mays var. Agway 425X; conditions: Zea mays, post-emergence, 0.3 kg/ha, after 17-21 days, read-out: Postemergence herbicidal activity (% control), Corn
Procedure: as §1, §2, §3, §4, §5, §6

Velvetleaf [14] = assay: Postemergence herbicidal activity, velvetleaf; assay type: in vivo; conditions: Abutilon theophrasti, post-emergence, 0.3 kg/ha, after 17-21 days, read-out: Postemergence herbicidal activity (% control), Velvetleaf
Procedure: as §1, §2, §3, §4, §5, §6

Morningglory [15] = assay: Postemergence herbicidal activity, morningglory; assay type: in vivo, Ipomea lacunosa or Ipomea hederacea; conditions: Ipomoea, post-emergence, 0.3 kg/ha, after 17-21 days, read-out: Postemergence herbicidal activity (% control), Morningglory
Procedure: as §1, §2, §3, §4, §5, §6

Chickweed [16] = assay: Postemergence herbicidal activity, chickweed; assay type: in vivo; conditions: Stellaria media, post-emergence, 0.3 kg/ha, after 17-21 days, read-out: Postemergence herbicidal activity (% control), Chickweed
Procedure: as §1, §2, §3, §4, §5, §6

Cocklebur [17] = assay: Postemergence herbicidal activity, cocklebur; assay type: in vivo, Xanthium pensylvanicum; conditions: Xanthium strumarium, post-emergence, 0.3 kg/ha, after 17-21 days, read-out: Postemergence herbicidal activity (% control), Cocklebur
Procedure: as §1, §2, §3, §4, §5, §6

Blackgrass [18] = assay: Postemergence herbicidal activity, blackgrass; assay type: in vivo, Aloepecurus myosuroides; conditions: Alopecurus myosuroides, post-emergence, 0.3 kg/ha, after 17-21 days, read-out: Postemergence herbicidal activity (% control), Blackgrass
Procedure: as §1, §2, §3, §4, §5, §6

Green foxtail [19] = assay: Postemergence herbicidal activity, green foxtail; assay type: in vivo; conditions: Setaria viridis, post-emergence, 0.3 kg/ha, after 17-21 days, read-out: Postemergence herbicidal activity (% control), Green foxtail
Procedure: as §1, §2, §3, §4, §5, §6

Johnsongrass [20] = assay: Postemergence herbicidal activity, johnsongrass; assay type: in vivo; conditions: Sorghum halepense, post-emergence, 0.3 kg/ha, after 17-21 days, read-out: Postemergence herbicidal activity (% control), Johnsongrass
Procedure: as §1, §2, §3, §4, §5, §6

## Cn1c(C(F)(F)F)cc(=O)n(-c2ccc(OCc3ccc(F)cc3)cc2)c1=O [Compound 5]
Soybean [1]
  activity at 300 g/ha: 60%
Wheat [2]
  activity at 300 g/ha: 20%
Corn [3]
  activity at 300 g/ha: 50%
Velvetleaf [4]
  activity at 300 g/ha: 100%
Morningglory [5]
  activity at 300 g/ha: 100%
Chickweed [6]
  activity at 300 g/ha: 100%
Cocklebur [7]
  activity at 300 g/ha: 40%
Blackgrass [8]
  activity at 300 g/ha: 20%
Green foxtail [9]
  activity at 300 g/ha: 100%
Johnsongrass [10]
  activity at 300 g/ha: 90%
Soybean [11]
  activity at 300 g/ha: 90%
Wheat [12]
  activity at 300 g/ha: 0%
Corn [13]
  activity at 300 g/ha: 75%
Velvetleaf [14]
  activity at 300 g/ha: 100%
Morningglory [15]
  activity at 300 g/ha: 100%
Chickweed [16]
  activity at 300 g/ha: 100%
Cocklebur [17]
  activity at 300 g/ha: 100%
Blackgrass [18]
  activity at 300 g/ha: 30%
Green foxtail [19]
  activity at 300 g/ha: 90%
Johnsongrass [20]
  activity at 300 g/ha: 75%

## Cn1c(C(F)(F)F)cc(=O)n(-c2ccc(OCc3cccc(Cl)c3)cc2)c1=O [Compound 3]
Soybean [1]
  activity at 300 g/ha: 10%
Wheat [2]
  activity at 300 g/ha: 0%
Corn [3]
  activity at 300 g/ha: 10%
Velvetleaf [4]
  activity at 300 g/ha: 80%
Morningglory [5]
  activity at 300 g/ha: 10%
Chickweed [6]
  activity at 300 g/ha: 0%
Cocklebur [7]
  activity at 300 g/ha: 0%
Blackgrass [8]
  activity at 300 g/ha: 0%
Green foxtail [9]
  activity at 300 g/ha: 95%
Johnsongrass [10]
  activity at 300 g/ha: 20%
Soybean [11]
  activity at 300 g/ha: 45%
Wheat [12]
  activity at 300 g/ha: 10%
Corn [13]
  activity at 300 g/ha: 60%
Velvetleaf [14]
  activity at 300 g/ha: 100%
Morningglory [15]
  activity at 300 g/ha: 90%
Chickweed [16]
  activity at 300 g/ha: 70%
Cocklebur [17]
  activity at 300 g/ha: 100%
Blackgrass [18]
  activity at 300 g/ha: 0%
Green foxtail [19]
  activity at 300 g/ha: 95%
Johnsongrass [20]
  activity at 300 g/ha: 90%

## Cn1c(C(F)(F)F)cc(=O)n(-c2ccc(OCc3ccccc3Cl)cc2)c1=O [Compound 2]
Soybean [1]
  activity at 300 g/ha: 20%
Wheat [2]
  activity at 300 g/ha: 5%
Corn [3]
  activity at 300 g/ha: 15%
Velvetleaf [4]
  activity at 300 g/ha: 100%
Morningglory [5]
  activity at 300 g/ha: 60%
Chickweed [6]
  activity at 300 g/ha: 0%
Cocklebur [7]
  activity at 300 g/ha: 10%
Blackgrass [8]
  activity at 300 g/ha: 0%
Green foxtail [9]
  activity at 300 g/ha: 100%
Johnsongrass [10]
  activity at 300 g/ha: 70%
Soybean [11]
  activity at 300 g/ha: 60%
Wheat [12]
  activity at 300 g/ha: 0%
Corn [13]
  activity at 300 g/ha: 45%
Velvetleaf [14]
  activity at 300 g/ha: 80%
Morningglory [15]
  activity at 300 g/ha: 60%
Chickweed [16]
  activity at 300 g/ha: 0%
Cocklebur [17]
  activity at 300 g/ha: 30%
Blackgrass [18]
  activity at 300 g/ha: 0%
Green foxtail [19]
  activity at 300 g/ha: 85%
Johnsongrass [20]
  activity at 300 g/ha: 10%

## Cn1c(C(F)(F)F)cc(=O)n(-c2ccc(OCc3cccc(Cl)c3Cl)cc2)c1=O [Compound 42]
Soybean [1]
  activity at 300 g/ha: 0%
Wheat [2]
  activity at 300 g/ha: 0%
Corn [3]
  activity at 300 g/ha: 0%
Velvetleaf [4]
  activity at 300 g/ha: 80%
Morningglory [5]
  activity at 300 g/ha: 70%
Chickweed [6]
  activity at 300 g/ha: 0%
Cocklebur [7]
  activity at 300 g/ha: 0%
Blackgrass [8]
  activity at 300 g/ha: 0%
Green foxtail [9]
  activity at 300 g/ha: 60%
Johnsongrass [10]
  activity at 300 g/ha: 30%
Soybean [11]
  activity at 300 g/ha: 25%
Wheat [12]
  activity at 300 g/ha: 0%
Corn [13]
  activity at 300 g/ha: 30%
Velvetleaf [14]
  activity at 300 g/ha: 90%
Chickweed [16]
  activity at 300 g/ha: 0%
Cocklebur [17]
  activity at 300 g/ha: 35%
Blackgrass [18]
  activity at 300 g/ha: 0%
Green foxtail [19]
  activity at 300 g/ha: 50%
Johnsongrass [20]
  activity at 300 g/ha: 50%
